Laboratory results taken from patent publication EP0774116B1, “METHOD FOR SCREENING COMPOUND LIBRARIES” (ZENECA LIMITED, priority 1994, dated 1996).

Key:
[1] = target: T1, endothelin converting enzyme (Bos taurus, UniProt P42891); experiment: Zones of enzyme inhibition in Sephacryl gel with fluorogenic FRET substrate, fluorescence imaging; type: biochemical; details: beads impregnated with 10mM solution in DMSO; gel left at ambient temperature overnight; FRET substrate 4micromolar
T1 construct: Samples of endothelin converting enzyme (ECE) were obtained essentially according to the method of Okada et al; endogenous in cells; By own knowledge of Okada et al. 1990: membrane fraction of cultured bovine endothelial cells
T1 sequence (P42891 1-754): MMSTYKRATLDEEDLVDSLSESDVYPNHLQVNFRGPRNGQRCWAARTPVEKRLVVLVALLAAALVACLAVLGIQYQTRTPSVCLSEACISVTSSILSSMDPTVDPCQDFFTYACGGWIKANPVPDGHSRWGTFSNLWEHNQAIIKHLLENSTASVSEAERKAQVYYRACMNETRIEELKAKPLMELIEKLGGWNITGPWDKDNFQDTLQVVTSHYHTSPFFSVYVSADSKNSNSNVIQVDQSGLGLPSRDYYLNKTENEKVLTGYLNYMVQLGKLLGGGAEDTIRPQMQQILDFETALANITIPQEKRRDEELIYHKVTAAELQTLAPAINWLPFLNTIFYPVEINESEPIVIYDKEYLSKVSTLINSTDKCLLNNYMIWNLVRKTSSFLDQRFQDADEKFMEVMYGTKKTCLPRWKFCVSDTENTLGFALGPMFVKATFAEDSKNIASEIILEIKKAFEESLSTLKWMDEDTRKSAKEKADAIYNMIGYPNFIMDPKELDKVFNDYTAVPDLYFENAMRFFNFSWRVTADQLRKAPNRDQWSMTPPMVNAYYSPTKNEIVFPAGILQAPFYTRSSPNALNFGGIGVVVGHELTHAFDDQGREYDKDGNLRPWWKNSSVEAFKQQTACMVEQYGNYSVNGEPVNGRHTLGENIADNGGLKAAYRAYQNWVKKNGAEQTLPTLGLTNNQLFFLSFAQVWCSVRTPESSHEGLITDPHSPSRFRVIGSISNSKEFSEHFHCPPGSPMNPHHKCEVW
Procedure: In this example, polystyrene beads are impregnated with a compound (phosphoramidon) to simulate the situation that would arise when a compound is made on a bead and then released prior to contacting the assay medium. The assay medium comprises a Sephacryl™ gel containing an enzyme, endothelin converting enzyme, and a fluorogenic FRET substrate, following by fluorescence imaging of the gel.
Ca 300 beads as used in Example 1 were suspended in a solution of phosphoramidon (10mM) in DMSO, allowed to swell and washed briefly in DMSO.
The FRET substrate, was derived from that of human big endothelin-1, 16-37, with Glu-26 changed to Cys: [formula] Fluorescein had been attached to Cys-26 and tetramethylrhodamine attached to the N-terminus, such that cleavage of the substrate removes the quenching effect of the tetramethylrhodamine resulting in an increase of fluorescein fluorescence.
The assay phase was assembled as follows. Sephacryl™ S-500 gel was suspended in 0.2M Tris/HCl pH 7.2 containing 0.5% BSA and then washed with buffer alone. To this gel suspension (24.5ml) was added the FRET substrate (3ml, 4micromolar final) and ECE (2.6 microlitres). After gentle mixing, the gel was poured into the polystyrene lid of a microtitre plate, allowed to settle and excess liquid gently removed with a tissue. […] The gel was then imaged on a fluorescence imager (FluorImager, Molecular Dynamics).

endothelin receptor = experiment: IC-50 determination by conventional filtration techniques (Holland et al.); type: binding
[2] = system: porcine endothelin receptor; experiment: Zone screening scintillation proximity assay in agarose gel, [125-I]Endothelin binding to receptor-coated SPA microspheres; details: one bead per well
Procedure: Agarose (Sigma) was suspended in distilled water and heated to boiling point in a microwave to melt, then cooled to 50 deg. C. Microspheres coated with the porcine endothelin receptor (1 vial, SPA, Amersham) were re-constituted in assay buffer (50 mM Tris.HCl, 1 mM EDTA, 0.1% BSA, 10 mM MgC12, pH 6.4 (25 ml). This suspension (10 ml) was then added to the cooled (50 deg. C) agarose (10 ml), vortexed mixed and 0.1 ml portions immediately added to wells of a white microtitre plate (Picoplate-96, Packard).
Test compounds were prepared as follows. Polystyrene beads (as used in example 1) were suspended in DMSO solutions of endothelin-1 (Cambridge Research Biochemicals) or various test compounds (T1 - T4) at various concentrations (see Table 1) for about 2 hours. After a spin (1 min.) on a micro-fuge, the beads were washed briefly in ethanol. Single beads were then transfered with forceps into the centre of the wells containing the SPA/agarose mix, one bead per well.
[125-I]Endothelin (Amersham) was diluted into the assay buffer to give a 180 pM solution. 6 ml of this was added to 6 ml of 1% agarose (at 50 deg. C) and vortexed mixed. 0.05 ml aliquots were then immediately added to each well. The plate was then sealed (Topseal-S, Packard) and counted at intervals (Top Count, Packard) for 2 minutes per well. By reference to a total control (no compound present) and non-specific binding control (40 micromolar endothelin-1, measured after 8 hours incubation), the per cent inhibition caused by each compound as it diffused away from the bead was calculated.
This inhibition is related to the potency of the compound. […]

Row | Compound | zones of enzyme inhibition in gel (fluorescence image) [1] | IC50 (endothelin receptor) [nM] | inhibition (%) ([2]; readings at 2 hours, bead soaked in 1.25 micromolar DMSO solution) | inhibition (%) ([2]; readings at 2 hours, bead soaked in 2.5 micromolar DMSO solution) | inhibition (%) ([2]; readings at 2 hours, bead soaked in 5 micromolar DMSO solution) | inhibition (%) ([2]; readings at 2 hours, bead soaked in 10 micromolar DMSO solution) | inhibition (%) ([2]; readings at 2 hours, bead soaked in 20 micromolar DMSO solution) | inhibition (%) ([2]; readings at 2 hours, bead soaked in 40 micromolar DMSO solution) | inhibition (%) ([2]; readings at 8 hours, bead soaked in 1.25 micromolar DMSO solution) | inhibition (%) ([2]; readings at 8 hours, bead soaked in 2.5 micromolar DMSO solution) | inhibition (%) ([2]; readings at 8 hours, bead soaked in 5 micromolar DMSO solution) | inhibition (%) ([2]; readings at 8 hours, bead soaked in 10 micromolar DMSO solution) | inhibition (%) ([2]; readings at 8 hours, bead soaked in 20 micromolar DMSO solution) | inhibition (%) ([2]; readings at 8 hours, bead soaked in 40 micromolar DMSO solution)
1 | CC(C)C[C@H](NP(=O)(O)O[C@@H]1O[C@@H](C)[C@H](O)[C@@H](O)[C@H]1O)C(=O)N[C@@H](Cc1c[nH]c2ccccc12)C(=O)O [phosphoramidon] | zones of reduced fluorescence |  |  |  |  |  |  |  |  |  |  |  |  | 
2 | endothelin-1 |  | 0.18 | -0.6 | 12.3 | 19.5 | 36.3 | 85.2 | (100) % | 6.5 | 14.0 | 18.2 | 40.0 | 47.5 | (100) %
